{
  "source": "patent US20120164117A1",
  "about": "“METHODS OF GENERATING HUMAN CARDIAC CELLS AND TISSUES AND USES THEREOF” (TECHNION RESEARCH & DEVELOPMENT FOUNDATION LTD., priority 2001, published 2012)",
  "key": {"[1]": {"system": "human embryonic stem cell line H9.2 embryoid bodies", "assay": "Cardiomyocyte differentiation efficiency, percentage of contracting embryoid bodies", "format": "cell-based", "excerpt": "Generation of human embryonic stem cell-derived cardiomyocytic cells: Ten different human embryonic stem cell lines including line H9 or its single cell clonal derivative H9.2 (Amit, M. et al., 2000. Dev. Biol. 227: 271) were individually grown on a mitotically inactivated (mitomycin C) mouse embryonic fibroblast feeder cell layer in culture medium, as previously described (Thomson, J. A. et al., 1998. Science 282: 1145). The culture medium consisted of 80% knockout DMEM (no-pyruvate, high-glucose formulation; Life Technologies, Inc., Rockville, Md., USA.) supplemented with 20% FBS (HyClone, Logan, Utah, USA.), 1 mM L-glutamine, 0.1 mM mercaptoethanol, and 1% nonessential amino acid stock (all from GIBCO-BRL). To induce differentiation, embryonic stem cells were dispersed into small clumps (3-20 cells) using collagenase IV (Life Technologies, Inc., 1 mg/ml for 20 minutes). […] The percentage of embryoid bodies displaying contracting areas, as well as the distribution of the timing of onset of spontaneous beating were evaluated. […] In addition, the effect of DMSO, a known stimulant of differentiation into cardiomyocytic lineage was assessed by adding dimethyl sulfoxide (Sigma Chemical Co., St. Louis, Mo., USA.) at a concentration of 0.75% (vol/vol) to the culture medium during the 10 days of growth in suspension. […]"}, "[2]": {"system": "human embryonic stem cell-derived cardiomyocytic tissue (contracting embryoid bodies)", "assay": "Pharmacological analysis of conduction, multielectrode array activation mapping of embryoid bodies", "format": "cell-based", "parameters": "Global Velocity / Mean CV Vector: unit not given here", "conditions": "for total activation time: one embryoid body"}, "[3]": {"system": "hybrid rat ventricular myocyte-human embryonic stem cell-derived cardiomyocyte co-cultures", "assay": "Electrical coupling in hybrid human ES cell-derived cardiomyocyte / neonatal rat ventricular myocyte co-cultures on microelectrode array", "format": "cell-based", "experimental": "Performed as described above in Example 2 of the Examples section. Primary monolayer cultures of neonatal rat (Sprague Dawley) ventricular myocytes were prepared as previously described (Fast V G. and Kleber A G., 1993. Circ Res. 73:914). Briefly, following excision, the ventricles were minced and treated with RDB (IIBR, Ness-Ziona, Israel). Dispersed cells were then cultured on gelatin coated (0.1%) microelectrode array plates or on glass cover slips at a density of 1.5×10^6 cells/ml. […] Pacing studies in co-cultures were performed by electrically stimulating the human or rat tissues with one of the electrodes of the multielectrode array. The degree of electrical coupling between the two tissue types was also assessed during long term recordings and during adrenergic stimulation and partial gap junction uncoupling. The cycle-lengths of the electrical activity in the ES cell-derived cardiomyocytes and in the rat tissue were measured and a histogram depicting the ratio between these two cycle-lengths during long-term recordings is shown in FIG. 16i."}, "[4]": {"system": "human embryonic stem cell-derived cardiomyocytic cells (contracting embryoid bodies)", "assay": "Chronotropic responses of contracting embryoid bodies, multielectrode array extracellular recordings", "format": "cell-based", "conditions": "for spontaneous contraction rate, % of baseline (initial) value: drug at 10^−6 M (1 μM)", "excerpt": "Multielectrode array (MEA) extracellular electrophysiology mapping and pharmacological studies: Intact contracting areas within the embryoid bodies were mechanically dissected using a pulled-glass micropipette and plated on gelatin-coated multielectrode arrays (Multi Channel Systems MCS GmbH, Reutlingen, Germany; Igelmund, P. et al., 1999. Pflugers Arch. 437: 669). The microelectrode array consists of 60 titanium nitride electrodes with gold contacts 30 μm in diameter with an interelectrode distance of 100-200 μm. The contracting areas were plated on top of the microelectrode arrays and cells were grown to confluence over the electrodes. […] Extracellular signals were recorded simultaneously from all 60 electrodes at 25 kHz and band-pass filtered from 1 to 3000 Hz. Recordings were performed in culture medium at 37° C. A pH of 7.4 was maintained using perfusion with an atmosphere containing 5% CO2 and 95% air. Chronotropic responses were assessed by extracellular recordings for 10 minutes prior to and following […], 1 μM carbamylcholine, 10 μM 3-isobutyl-1-methylxanthine (IBMX), or 1 μM forskolin (all from Sigma). Statistical analysis: Data are expressed as mean ±standard deviation. In order to assess possible chronotropic effects, the average spontaneous beating rate was compared prior to and following drug application using two-tailed paired Student's t test."}, "[5]": {"system": "swine model of complete atrioventricular block", "assay": "Swine complete atrioventricular block model transplanted with human ES cell-derived cardiomyocytic cells, rate of new ventricular rhythm", "format": "in vivo", "conditions": "following isoproterenol (20 μM); rate before 68±4 beats/minute"}, "[6]": {"conditions": "extracellular potassium 10 mM, n=7"}, "[7]": {"conditions": "extracellular potassium 15 mM, n=7"}, "[8]": {"conditions": "extracellular potassium 20 mM, n=7"}},
  "note": "Where two headings read alike, the source gives them in different places.",
  "data": [
    {"molecule": "C[S+](C)[O-]", "note": "[DMSO, dimethyl sulfoxide]", "values": [
      {"measurement": "increase of the percentage of embryoid bodies with cells displaying cardiac lineage differentiation", "setting": "[1]; 0.75 percent (v/v) dimethyl sulfoxide", "value": "about 20%"},
      {"measurement": "percentage of embryoid bodies demonstrating contracting areas", "setting": "[1]; DMSO 0.75% (vol/vol) during suspension, 8.1% without", "value": 10.1, "unit": "%"}
    ]},
    {"molecule": "COc1ccc([C@@H]2Sc3ccccc3N(CCN(C)C)C(=O)[C@@H]2OC(C)=O)cc1.Cl", "note": "[Diltiazem, diltiazem hydrochloride]", "values": [
      {"measurement": "Global Velocity", "setting": "[2]", "value": "2.8 ± 2.0"},
      {"measurement": "Maximal − dv/dt", "setting": "[2]", "value": "2.5 ± 4.2", "unit": "mV/sec"},
      {"measurement": "Mean CV Vector", "setting": "[2]", "value": "5.7 ± 4.2"},
      {"measurement": "changes in the conduction parameters studied (global velocity, local velocity vector, −dV/dtmax)", "setting": "[2]", "value": "did not result in significant changes"}
    ]},
    {"molecule": "CCCCCCCO", "note": "[Heptanol, 1-Heptanol]", "values": [
      {"measurement": "co-cultures in which tight coupling was not altered", "setting": "[3]; 1-Heptanol 0.5 mM", "value": "5 of the 8"},
      {"measurement": "co-cultures with occasional episodes of 2:1 conduction block", "setting": "[3]; 1-Heptanol 0.5 mM, 8 co-cultures studied", "value": 3},
      {"measurement": "total activation time", "setting": "[2]; 1-heptanol 0.3 mM, baseline 15 milliseconds", "value": 32, "unit": "milliseconds"},
      {"measurement": "effect of higher doses on beating", "setting": "[2]; 1-heptanol 0.6 and 1 mM, n=8", "value": "complete cessation of beating"},
      {"measurement": "Global Velocity", "setting": "[2]; heptanol 0.3 mM, n=7", "value": "1.7 ± 0.6"},
      {"measurement": "Maximal − dv/dt", "setting": "[2]; heptanol 0.3 mM, n=7", "value": "2.0 ± 2.3", "unit": "mV/sec"},
      {"measurement": "Mean CV Vector", "setting": "[2]; heptanol 0.3 mM, n=7", "value": "3.0 ± 5.7"},
      {"measurement": "Global Velocity", "setting": "[2]; heptanol 0.6 mM", "value": "1.2 ± 0.9"},
      {"measurement": "Maximal − dv/dt", "setting": "[2]; heptanol 0.6 mM", "value": "2.1 ± 3.0", "unit": "mV/sec"},
      {"measurement": "Mean CV Vector", "setting": "[2]; heptanol 0.6 mM", "value": "3.0 ± 3.8"},
      {"measurement": "Global Velocity", "setting": "[2]; heptanol 1 mM", "value": "No conduction"},
      {"measurement": "Maximal − dv/dt", "setting": "[2]; heptanol 1 mM", "value": "No conduction"},
      {"measurement": "Mean CV Vector", "setting": "[2]; heptanol 1 mM", "value": "No conduction"}
    ]},
    {"molecule": "CC(C)Cn1c(=O)n(C)c(=O)c2[nH]cnc21", "note": "[IBMX, 3-isobutyl-1-methylxanthine]", "values": [
      {"measurement": "spontaneous contraction rate, % of initial value", "setting": "[4]; 10 μM IBMX, n=6, mean ± SD", "value": "152±77", "unit": "%"}
    ]},
    {"molecule": "CC(C)NCC(O)c1ccc(O)c(O)c1", "note": "(centres unmarked) [Isoproterenol, isoproterenol]", "values": [
      {"measurement": "electrical coupling between the two cell types", "setting": "[3]; isoproterenol 10 μM", "value": "not hindered"},
      {"measurement": "spontaneous beating rate", "setting": "[3]; isoproterenol 10 μM, base line 1.6±0.6 Hz, p<0.05", "value": "1.9±0.8", "unit": "Hz"},
      {"measurement": "chronotropic response of contracting embryoid bodies", "setting": "[4]; 10 μM isoproterenol", "value": "positive chronotropic responses"},
      {"measurement": "spontaneous contraction rate, % of baseline (initial) value", "setting": "[4]; mean ± SD", "value": "146±43", "unit": "%"},
      {"measurement": "heart rate of the new ventricular rhythm", "setting": "[5]", "value": "105±10", "unit": "beats/minute"}
    ]},
    {"molecule": "[K+]", "note": "[Potassium]", "values": [
      {"measurement": "Global Velocity", "setting": "[2]; [6]", "value": "1.6 ± 0.6"},
      {"measurement": "Maximal − dv/dt", "setting": "[2]; [6]", "value": "2.7 ± 5.5", "unit": "mV/sec"},
      {"measurement": "Mean CV Vector", "setting": "[2]; [6]", "value": "3.5 ± 4.2"},
      {"measurement": "total activation time", "setting": "[2]; extracellular potassium 10 mM, baseline 25 milliseconds", "value": 40, "unit": "milliseconds"},
      {"measurement": "Global Velocity", "setting": "[2]; [7]", "value": "1.0 ± 0.3"},
      {"measurement": "Maximal − dv/dt", "setting": "[2]; [7]", "value": "1.1 ± 1.4", "unit": "mV/sec"},
      {"measurement": "Mean CV Vector", "setting": "[2]; [7]", "value": "2.0 ± 2.3"},
      {"measurement": "total activation time", "setting": "[2]; extracellular potassium 15 mM, baseline 25 milliseconds", "value": 70, "unit": "milliseconds"},
      {"measurement": "Global Velocity", "setting": "[2]; [8]", "value": "1.0 ± 0.4"},
      {"measurement": "Maximal − dv/dt", "setting": "[2]; [8]", "value": "1.1 ± 1.2", "unit": "mV/sec"},
      {"measurement": "Mean CV Vector", "setting": "[2]; [8]", "value": "1.5 ± 1"},
      {"measurement": "total activation time", "setting": "[2]; extracellular potassium 20 mM, baseline 25 milliseconds", "value": 120, "unit": "milliseconds"}
    ]},
    {"molecule": "NC1=N[C@H](O)[C@H]2[C@H]3O[C@]4(O)O[C@@H]([C@@H](O)[C@@]2(N1)[C@@H]4O)[C@]3(O)CO", "note": "[TTX, tetrodotoxin]", "values": [
      {"measurement": "Global Velocity", "setting": "[2]", "value": "1.8 ± 0.9"},
      {"measurement": "Maximal − dv/dt", "setting": "[2]", "value": "1.9 ± 1.9", "unit": "mV/sec"},
      {"measurement": "Mean CV Vector", "setting": "[2]", "value": "3.2 ± 3"},
      {"measurement": "total microelectrode array activation time", "setting": "[2]", "value": 35, "unit": "milliseconds"}
    ]},
    {"molecule": "CN1[C@@H]2CC[C@H]1C[C@@H](OC(=O)C(CO)c1ccccc1)C2", "note": "(some centres unmarked) [atropine]", "values": [
      {"measurement": "effect on carbamylcholine-induced decrease of spontaneous contraction rate", "setting": "[4]", "value": "reversed"}
    ]},
    {"molecule": "C[N+](C)(C)CCOC(N)=O.[Cl-]", "note": "[carbamylcholine]", "values": [
      {"measurement": "spontaneous contraction rate, % of baseline (initial) value", "setting": "[4]; mean ± SD", "value": "78±20", "unit": "%"}
    ]},
    {"molecule": "C=C[C@@]1(C)CC(=O)[C@]2(O)[C@@]3(C)[C@@H](O)CCC(C)(C)[C@@H]3[C@H](O)[C@H](OC(C)=O)[C@@]2(C)O1", "note": "[forskolin]", "values": [
      {"measurement": "spontaneous contraction rate, % of baseline (initial) value", "setting": "[4]; mean ± SD", "value": "182±48", "unit": "%"}
    ]}
  ]
}
